{"source": "patent US9132191B2", "about": "“Compositions and methods of preventing or ameliorating abnormal thrombus formation and cardiovascular disease” (Yale University, priority 2011, dated 2015)", "key": {"[1]": {"target": "T1, platelet COX-1 (Homo sapiens, UniProt P23219)", "T1 construct": "in whole blood allowed to clot for 1 h at 37° C; (serum TXB2) which is an index of maximal capacity of platelets; endogenous in cells; host or cells: platelets in whole blood of diabetic patients and healthy subjects", "T1 sequence (P23219 24-599)": "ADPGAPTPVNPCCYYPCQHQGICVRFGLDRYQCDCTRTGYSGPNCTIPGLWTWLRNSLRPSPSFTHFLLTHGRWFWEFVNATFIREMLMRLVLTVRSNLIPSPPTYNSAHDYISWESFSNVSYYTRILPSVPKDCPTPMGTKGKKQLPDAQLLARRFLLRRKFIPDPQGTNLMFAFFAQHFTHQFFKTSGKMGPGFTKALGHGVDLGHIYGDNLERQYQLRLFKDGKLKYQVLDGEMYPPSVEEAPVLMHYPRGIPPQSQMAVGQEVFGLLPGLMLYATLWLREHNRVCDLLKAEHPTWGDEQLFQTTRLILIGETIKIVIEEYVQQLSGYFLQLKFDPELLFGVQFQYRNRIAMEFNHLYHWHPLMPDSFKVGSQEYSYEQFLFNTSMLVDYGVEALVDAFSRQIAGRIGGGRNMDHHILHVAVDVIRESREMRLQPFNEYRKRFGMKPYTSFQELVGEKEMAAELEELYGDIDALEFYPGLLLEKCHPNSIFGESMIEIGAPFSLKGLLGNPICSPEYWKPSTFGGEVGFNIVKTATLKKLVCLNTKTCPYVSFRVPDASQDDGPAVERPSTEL", "assay": "Residual serum TXB2 generation in clotted whole blood (index of platelet COX-1 activity)", "assay_type": "cell-based", "source_text": "Patients with the presence of type 2 diabetes (n=102) were recruited from the Hospital Policlinico G.B. Rossi (Verona, Italy) and San Pio da Pietrelcina Hospital (Vasto, Italy). Exclusion criteria included concurrent cancer, inflammatory disorder, immunological disorder, surgery or major trauma in the previous month or use of nonsteroidal anti-inflammatory drugs (NSAIDs) or corticosteroids in the previous month. Both the diabetic population and the severe cardiovascular disease population were chronically treated with low dose aspirin for at least one month (enteric coated aspirin 100 mg for at least 7 consecutive days). After recruitment the patients received a standard oral dose of 100 mg for seven days at 8.00 pm. […] The 10 healthy subjects recruited were from the staff of Hospital Policlinico G.B. Rossi (Verona Italy) with normal ECG and echocardiograms and no evidence of atherosclerosis by carotid artery sonography. The healthy subjects were all treated with aspirin 100 mg daily for 1 week.\n(serum TXB2) which is an index of maximal capacity of platelets to generate TXB2.\nIn order to verify whether in these patients higher generation of platelet TXB2 was due to the phenomenon of aspirin resistance which implies that the aspirin target, i.e., COX-1, is less sensitive to inactivation by aspirin, residual generation of TXB2 was assessed after adding aspirin (50 μg/mL) in vitro."}, "[2]": {"test_system": "washed platelet", "assay": "Aggregometry of washed platelets incubated with AR inhibitors (Example 12)", "assay_type": "cell-based", "conditions": "Homo sapiens, 10 μM inhibitor, 1 hour at 37° C., collagen 1 μg/mL, light transmission 5 min, read-out: % reduction (platelet aggregation, light transmission)", "description": "Platelet-poor plasma (PPP) was obtained by centrifugation of the rest of the blood at 1400 g at 25° C. for 10 min. The PRP was adjusted with PPP to 2−3×10^8 platelets/mL suspensions. For the washed platelets, PRP was obtained by centrifugation at 250 g for 15 min, and platelets were sedimented at 1,000 g for 15 min, and then resuspended in washing buffer (103 mmol/L NaCl, 5 mmol/L KCl, 1 mmol/L MgCl2, 5 mmol/L glucose, 36 mmol/L citric acid) at pH 6.5 containing 3.5 mg/mL bovine serum albumin (Sigma). After sedimentation, the platelets were washed twice in this buffer and resuspended at 2−3×10^8 platelets/mL in the buffer composed of 5 mmol/L HEPES, 137 mmol/L NaCl, 2 mmol/L KCl, 1 mmol/L MgCl2, 12 mmol/L NaHCO3, 0.3 mmol/L NaH2PO4, 5.5 mmol/L glucose, pH 7.4, containing 3.5 mg/mL BSA (Saxena et al., 1989, Science 243:1596-1599).\nWashed platelet (1×10^8) were incubated with AR inhibitors for 1 hour at 37° C. For aggregometry studies, 0.5 μL of collagen solution (with a final concentration of 1 μg/mL) was added into 500 μL of washed platelet, and then the light transmission was measured for 5 min. […] The percentage of platelet aggregation, as measured in terms of light transmission, is summarized in FIG. 17, and representative tracings are depicted in FIG. 18."}, "[3]": {"test_system": "thromboxane receptor (TP)", "assay": "Surface expression of thromboxane receptor in collagen-stimulated platelets", "assay_type": "cell-based, human", "conditions": "HG; 1 μg/mL collagen; epalrestat 10 μmol/L, NAC, apocynin", "description": "(§1) Primary antibodies against the following proteins were diluted and used according to the manufacturer's instructions: AR (sc-17732, Santa Cruz Biotechnology), PKC α (sc-208, Santa Cruz Biotechnology) and its phosphorylated form (sc-136018, Thr638, Santa Cruz Biotechnology), PKC βII (NB110-57358, Novus Biologicals) and its phosphorylated form (NSB964, Thr641, Novus Biologicals), PKC δ (2058, Cell Signaling) and its phosphorylated form (9376, Ser643, Cell Signaling), PLC-γ1 (H00005335-A01, Novus Biologicals) and its phosphorylated form (07866, Tyr783, Millipore), PLC-γ2 (NB110-66669, Novus Biologicals) and its phosphorylated form (NB110-57424, Tyr1217, Novus Biologicals), p38α MAPK (9212, Cell Signaling) and its phosphorylated form (AF869, T180/Y182, R&D Systems), and TX receptor (NBP1-40198, Novus Biologicals). Secondary antibodies against rabbit and mouse IgG (Thermo Scientific) were diluted 1:5000 before use. The membrane was re-probed with antibodies against Na^+/K^+-ATPase (NB300-147, Novus Biologicals), a plasma membrane marker, and GAPDH (sc-20357, Santa Cruz Biotechnology), a cytoplasmic marker, for normalization.\nPlatelets were sedimented by centrifugation at 2,500 g for 5 min. The membrane and cytosolic fractions of total extracts were separated using the subcellular protein fractionation kit (Thermo Scientific). […]"}, "[4]": {"test_system": "human platelets", "assay": "Collagen-induced platelet aggregation (light transmission, Lumi-aggregometer)", "assay_type": "cell-based", "conditions": "NG or HG 90 min; 1 μg/mL collagen; SB239063 50 μmol/L, U73122 5 μmol/L, quercetin 10 μmol/L, SQ29548 10 μmol/L, NAC, apocynin 100 μmol/L", "description": "Venous blood was drawn from volunteers at Yale University Medical School, free from medication known to interfere with platelet function. […] PRP was obtained by centrifugation of blood at 250 g at 37° C. for 15 min and the platelet count in the PRP was estimated by an automated cell counter.\nPlatelet-poor plasma (PPP) was obtained by centrifugation of the rest of the blood at 1400 g at 25° C. for 10 min. The PRP was adjusted with PPP to 2−3×10^8 platelets/mL suspensions.\nPlatelet aggregation was monitored at 37° C. with constant stirring (1,200 rpm) in a dual-channel Lumi-aggregometer (Chrono-Log model 700). Platelet aggregation was measured as the increase in light transmission for 10 min, starting with the addition of 0.5 μL of 1 mg/mL collagen (Chrono-Log) as a proaggregatory stimulus. For measuring ADP-stimulated platelet aggregation, 1 μM ADP (Chrono-Log) was used. The maximum aggregation was expressed as percentage of maximum light transmission, with non-stimulated platelet-rich plasma being 0% and platelet-poor plasma 100%."}, "[5]": {"test_system": "human platelets", "assay": "Oxidative stress and superoxide level in collagen-stimulated platelets", "assay_type": "cell-based", "conditions": "NG and HG, epalrestat 10 μmol/L, 10 mmol/L NAC, 100 μmol/L apocynin", "description": "The oxidative stress and superoxide level was measured by a commercial kit according to the manufacturer's instruction (Total ROS/Superoxide Detection Kit, Enzo Life Sciences). Platelets were sedimented by centrifugation at 400 g for 5 min, and then washed. The washed platelets were incubated with 1 μmol/L ROS/Superoxide detection mix for 60 min at 37° C. in the presence or absence of 1 μg/mL collagen."}, "[6]": {"test_system": "human platelets", "assay": "Thromboxane biosynthesis (TXB2 EIA in platelet supernatant)", "assay_type": "cell-based", "conditions": "NG or HG; 1 μg/mL collagen; U73122 5 μmol/L, SB239063 50 μmol/L, SQ29548 10 μmol/L", "description": "Platelets were sedimented by centrifugation at 2,500 g for 5 min, and the supernatant was harvested for the measurement of TX levels. Since TXA2 is rapidly hydrolyzed into TXB2, the level of TXB2 was measured using TXB2 EIA kit according to the manufacturer's ELISA instructions (Cayman Chemical)."}, "[7]": {"target": "aldose reductase (Homo sapiens, UniProt P15121)", "conditions": "aldose reductase inhibitor IC50; no method given; cited from earlier work"}, "[8]": {"test_system": "p38α MAPK", "assay": "p38α MAPK phosphorylation in collagen-stimulated platelets (phospho-kinase array, Western blot)", "assay_type": "cell-based, human", "conditions": "NG and HG; 1 μg/mL collagen 10 min; epalrestat 10 μmol/L, U73122, NAC 1 mmol/L, quercetin 10 μmol/L", "description": "Platelets were homogenized in the lysis buffer (25 mmol/L Tris HCl, pH 7.6, 150 mmol/L NaCl, 1% NP-40, 1% sodium deoxycholate, 0.1% SDS) with the addition of 0.1% protease inhibitor and 0.1% phosphatase inhibitor (Thermo Scientific). The supernatant was collected after centrifugation at 13,000 rpm for 15 min at 4° C. The samples are loaded in 4×SDS-Laemmli sample buffers and boiled for 10 min. Equal amounts of total extracts were subjected to SDS-PAGE. The proteins were transferred to nitrocellulose membrane and probed with the indicated antibodies, and the antigen-antibody complex was detected by enhanced chemiluminescence reagents (Thermo Scientific).\nas §1\nThe human phospho-kinase array was performed according to the manufacturer's instruction (R&D Systems). […] The signals for the amount of phosphorylated proteins bound were measured by the chemiluminescent detection method."}}}
{"smiles": "CC(=O)Oc1ccccc1C(=O)O", "note": "[aspirin, Acetylsalicylic Acid]", "values": [{"measurement": "diabetic patients with residual TXB2 levels higher than 4 ng/mL with aspirin in vitro", "setting": "[1]; aspirin 50 μg/mL added in vitro", "result": 2, "unit": "%"}, {"measurement": "residual TXB2 generation after adding aspirin in vitro", "setting": "[1]; aspirin 50 μg/mL in vitro, diabetic patients and healthy subjects on aspirin 100 mg/day, blood clotted 1 h at 37° C.", "result": "further significant reduction"}, {"measurement": "diabetic patients with residual serum TXB2 higher than 4 ng/mL", "setting": "[1]; ex vivo, 12 h after the last dose of aspirin 100 mg/day", "result": 12, "unit": "%"}]}
{"smiles": "O=C1CC2(C(=O)N1)C(=O)N(Cc1ccc(Br)cc1F)C(=O)c1ccc(F)cc12", "note": "(racemic) [IDD 62, (±)-2-(4-Bromo-2-fluorobenzyl)-6-fluorospiro[1,2,3,4-tetrahydroisoquinoline-4,3′-pyrrolidine]-1,2′,3,5′-tetraone]", "values": [{"measurement": "inhibition at 10 µM", "setting": "[2]", "result": 59, "unit": "%"}]}
{"smiles": "O=C(O)Cn1cc(Cc2nc3c(F)c(F)cc(F)c3s2)c2ccccc21", "note": "[IDD 676, [3-(4,5,7-Trifluorobenzothiazol-2-ylmethyl)indol-1-yl]acetic acid]", "values": [{"measurement": "inhibition at 10 µM", "setting": "[2]", "result": 54, "unit": "%"}]}
{"smiles": "COc1cc(C(C)=O)ccc1O", "note": "[apocynin]", "values": [{"measurement": "surface expression of TX receptor (TP)", "setting": "[3]", "result": "significantly attenuated"}, {"measurement": "collagen-induced platelet aggregation (signalling inhibitors)", "setting": "[4]", "result": "attenuated the collagen-induced platelet aggregation to a similar extent as ARI"}, {"measurement": "level of oxidative stress and superoxide", "setting": "[5]", "result": "significantly reduced"}]}
{"smiles": "O=C(O)CCC/C=C\\C[C@@H]1[C@H](CNNC(=O)Nc2ccccc2)[C@H]2CC[C@@H]1O2", "note": "[SQ29548, 1S-[1-alpha,2-beta-(5Z),3-beta,4-alpha]-7-[3-[[2-[(phenylamino)carbonyl]hydrazino]methyl]-7-oxabicyclo[2.2.1]hept-2-yl]-5-heptenoic acid]", "values": [{"measurement": "collagen-induced TXB2 (TXA2) release (signalling inhibitors)", "setting": "[6]", "result": "attenuated collagen-induced TXA2 release"}, {"measurement": "collagen-induced platelet aggregation (signalling inhibitors)", "setting": "[4]", "result": "attenuated the collagen-induced platelet aggregation"}]}
{"smiles": "COc1nccc(-c2c(-c3ccc(F)cc3)ncn2[C@H]2CC[C@H](O)CC2)n1", "note": "[SB239063, trans-4-[4-(4-fluorophenyl)-5-(2-methoxy-4-pyrimidinyl)-1H-imidazol-1-yl]cyclohexanol]", "values": [{"measurement": "collagen-induced TXB2 (TXA2) release (signalling inhibitors)", "setting": "[6]", "result": "attenuated the collagen-induced TXB2 release"}, {"measurement": "collagen-induced platelet aggregation (signalling inhibitors)", "setting": "[4]", "result": "reduced platelet aggregation"}]}
{"smiles": "O=C(O)CN1C(=O)C(=O)N(Cc2cccc([N+](=O)[O-])c2)C1=O", "note": "[IDD 314, 3-(3-nitrobenzyl)-2,4,5-trioxoimidazolidine-1-acetic acid]", "values": [{"measurement": "inhibition at 10 µM", "setting": "[2]", "result": 52, "unit": "%"}, {"measurement": "IC50", "setting": "[7]", "result": 718, "unit": "nM"}]}
{"smiles": "COc1ccc2c(c1)CC[C@@H]1[C@@H]2CC[C@]2(C)[C@@H](NCCCCCCN3C(=O)C=CC3=O)CC[C@@H]12", "note": "[U73122]", "values": [{"measurement": "collagen-induced TXB2 (TXA2) release (signalling inhibitors)", "setting": "[6]", "result": "attenuated the collagen-induced TXB2 release"}, {"measurement": "collagen-induced phosphorylation of p38α MAPK (Western blot)", "setting": "[8]", "result": "significantly reduced"}, {"measurement": "collagen-induced platelet aggregation (signalling inhibitors)", "setting": "[4]", "result": "reduced platelet aggregation"}]}
{"smiles": "COc1ccc2c(C(=S)N(C)CC(=O)O)cccc2c1C(F)(F)F", "note": "[IDD 63, N-{[6-methoxy-5-(trifluoromethyl)-1-naphthyl]carbothioyl}-N-methylglycine]", "values": [{"measurement": "inhibition at 10 µM", "setting": "[2]", "result": 78, "unit": "%"}]}
{"smiles": "CCCCCOc1ccc(C2SC(=O)NC2=O)cc1OCC", "note": "(centres unmarked) [IDD 73, 5-[3-Ethoxy-4-(pentyloxy)phenyl]-2,4-thiazolidinedione]", "values": [{"measurement": "inhibition at 10 µM", "setting": "[2]", "result": 54, "unit": "%"}, {"measurement": "IC50", "setting": "[7]", "result": 294, "unit": "nM"}]}
{"smiles": "CC(=O)N[C@@H](CS)C(=O)O", "note": "[NAC, N-acetyl-cysteine]", "values": [{"measurement": "collagen-induced phosphorylation of p38α MAPK (Western blot)", "setting": "[8]", "result": "significantly reduced"}, {"measurement": "surface expression of TX receptor (TP)", "setting": "[3]", "result": "significantly attenuated"}, {"measurement": "collagen-induced platelet aggregation (signalling inhibitors)", "setting": "[4]", "result": "attenuated the collagen-induced platelet aggregation to a similar extent as ARI"}, {"measurement": "level of oxidative stress and superoxide", "setting": "[5]", "result": "significantly reduced"}]}
{"smiles": "O=C(O)Cc1nn(Cc2nc3cc(C(F)(F)F)ccc3s2)c(=O)c2ccccc12", "note": "[IDD 65, 3,4-Dihydro-4-oxo-3-[[5-(trifluoromethyl)-2-benzothiazolyl]methyl]-1-phthalazineacetic acid]", "values": [{"measurement": "inhibition at 10 µM", "setting": "[2]", "result": 50, "unit": "%"}]}
{"smiles": "O=c1c(O)c(-c2ccc(O)c(O)c2)oc2cc(O)cc(O)c12", "note": "[quercetin]", "values": [{"measurement": "collagen-induced phosphorylation of p38α MAPK (Western blot)", "setting": "[8]", "result": "attenuated"}, {"measurement": "collagen-induced platelet aggregation (signalling inhibitors)", "setting": "[4]", "result": "reduced platelet aggregation"}]}
{"smiles": "O=C1NC(=O)[C@@]2(CCOc3ccc(F)cc32)N1", "note": "[IDD 60, (4S)-6-Fluoro-2,3-dihydro-2′H,5′H-spiro[chromene-4,4′-imidazolidine]-2′,5′-dione]", "values": [{"measurement": "inhibition at 10 µM", "setting": "[2]", "result": 67, "unit": "%"}]}
{"smiles": "O=C(O)Cn1c(=O)n(Cc2ccc(Br)cc2F)c(=O)c2ccc(Cl)cc21", "note": "[IDD 148, 3-(2-Fluoro-4-bromobenzyl)-7-chloro-2,4(1H,3H)-dioxoquinazoline-1-acetic acid]", "values": [{"measurement": "inhibition at 10 µM", "setting": "[2]", "result": 61, "unit": "%"}]}
